pEC50, pIC50: −log10 of the molar value.
Tests used:
[1] = test system: HFD mice; test: High fat diet (HFD) model of diabetes and metabolic pathologies in mice; type: in vivo, mouse; details: 30 mg/kg i.p. every 24 h
Method: High-fat diet-fed mouse is a widely used model for impaired glucose tolerance (IGT) and type 2 diabetes. Eight-week-old male C57BL/6 mice (Charles River-France) were used for experiments. Mice were maintained under controlled conditions [12 h light/dark cycle; temperature 20° C. (±2° C.) and 40-50% relative humidity] with free access to tap water and standard rodent chow ad libitum. After 1 week of acclimatization, mice were divided into two groups and fed ad libitum with a standard diet—CD- (Code U8220G10R, SAFE Diets, Augy, France) or a High-Fat diet—HFD- (D12451; Research Diets, New Brunswick, N.J.) in order to induce obesity for 15 weeks (diet-induced obesity, DIO). In order to assess the potential beneficial metabolic effects of compound VII in this model of DIO, pharmacological administration of the compound (30 mg/kg body weight) was performed by intraperitoneal (i.p.) injection every 24 h from 12th to 15th week of diet exposure. Control animals received the corresponding vehicle injections (1:1:18 Ethanol:Cremophor:Saline).
To ensure the effectiveness of HFD feeding regimen and assess the efficacy of compounds in terms of amelioration of the metabolic phenotype, body composition analyses of fat and lean masses were performed by QMR (quantitative magnetic resonance) using the EchoMRI™ 700 analyzer (Houston, Tex., software v. 2.0). In this sense, MRI scans were taken in three time points during the experimental period: before starting diet exposure, after 12 week of feeding regimen (coinciding with start of treatment) and at the end of experimental procedures (on the 15th week of diet exposure). Additionally, five days before sacrifice, glucose tolerance test (GTT) was performed in overnight food-deprived mice. To this end, mice were injected intraperitoneally with 2 mg of glucose/g body weight and blood glucose was measured before and 30, 60 and 120 min after injection utilizing an Accu-Chek Advantage® (Roche) glucometer. At the end of the experiment, mice were sacrificed and blood samples were collected using EDTA-coated tubes and plasma stored at −80° C. Plasma triglycerides were measured using and enzymatic colorimetric kit (QCA, Barcelona, Spain).

[2] = test system: STAT3; test: STAT3 inhibition in HeLa-STAT3-Luc cells stimulated with IFN-γ; type: cell-based; details: IFN-γ 25 IU/ml, 6 h
Method: (§1) The HeLa-STAT3-luc cells stably transfected with the plasmid 4×M67 pTATA TK-Luc. Cells (20×10^3 cells/ml) were seeded in 96-well plates, treated with increasing concentrations of the compounds II to XIV, and of comparative compound CDDO-Me, for 15 min and then stimulated with IFN-γ 25 IU/ml. After 6 h the luciferase activity in the cell lysates was measured as indicated above. […] The HaCaT-ARE-Luc cell line contains the Nqo1 Antioxidant Response Element (ARE)-Luc reporter plasmid. ARE is activated by all members of the CNC family of factors (Nrf1, Nrf2, Nrf3 and p45 NF-E2). The cells were cultivated in 96-well plates at the concentration of 25×10^3 cells/well in a CO2 incubator at 37° C. For induction of Nrf2 activation the cells were treated with increasing concentrations of the compounds II to XV, and of comparative compound CDDO-Me, for 6 h. As a positive control the cells were treated with 0.02 mM of the antioxidant Tert-butyl-hydroquinone (TBHQ). Luciferase activity in the cell lysates was measured as indicated above and the EC50 calculated (Table III). The CHO-TGR5-CRE-Luc cells stably transfected with the pTGR5 and CRE-Luc. The CRE-responsive luciferase construct encodes the firefly luciferase reporter gene under the control of a minimal (m)CMV promoter and tandem repeats of the CRE transcriptional response element (TRE) and is useful to monitor cAMP signaling pathways activated by TGR5 agonists. Cells (1×10^4/well) were seeded in 96-well plates, treated with increasing concentrations of the compounds II to XV and CDDO-Me, for 6 h. As a positive control the cells were treated with 10 μM of LCA (lithocholic acid). Luciferase activity in the cell lysates was measured as indicated above and the EC50 calculated (Table III).

[3] = test system: HIF-1α; test: HIF-1α stabilization in 293T cells (Western blot); type: cell-based, human; details: increasing concentrations, 3 h
Method: Stimulation of human Embryonic Kidney 293 cells with increasing concentrations of compound VII or with DFX (150 μM) during 3 h. The steady state levels of the proteins HIF-1α, PHD1, PHD2 and β-actin were determined by Western blots.
Next, Human Embryonic Kidney 293 cells (293T) were stimulated with the increasing concentrations of compound VII or with DFX (150 μM) during 3 h. After that, proteins isolation and western blots were performed as in FIG. 3. The antibody against HIF-1α (610959) was from BD Biosciences (USA), the antibodies anti-PHD1 (ab80361) and anti-PHD2 (ab109088) were from Abcam (Cambrigde, UK), and the antibody anti-β-actin (AC-74) was purchased from Sigma-Aldrich (Saint Louis, Mo., USA).

[4] = test system: TGR5; test: TGR5 activation in CHO-TGR5-CRE-Luc cells; type: cell-based; details: 6 h
Method: The CHO-TGR5-CRE-Luc cells stably transfected with the pTGR5 and CRE-Luc. […] As a positive control the cells were treated with 10 μM of LCA (lithocholic acid). Luciferase activity in the cell lysates was measured as indicated above and the EC50 calculated (Table III).

[5] = test system: Erythropoietin (EPO); test: Plasma erythropoietin (EPO) levels in mice (ELISA); type: in vivo, mouse; details: C57BL/6 male mice, i.p., 4 hours after treatment; compound VII 30 and 60 mg/kg, Betulinic acid 60 mg/kg
Method: EPO in plasma measured using a mouse EPO ELISA kit in C57BL/6 male mice administered with compound VII (30 mg/kg or 60 mg/kg) or betulinic acid (BA) (60 mg/kg) intraperitoneally. […] Data are expressed as mean±SEM (n=3).
Erythropoietin (EPO) is one of the earliest described and most sensitive HIF target genes; being positively regulated at the transcription level. Here, the ability of compound VII to regulated EPO levels in vivo was examined. Sixteen-week-old C57BL/6 male mice were treated intraperitoneally (i.p.) with Betulinic Acid (60 mg/kg) or compound VII (30 mg/kg or 60 mg/kg). Blood samples were taken under general anaesthesia 4 hours after treatment and the circulating levels of EPO in plasma were quantified using a mouse EPO ELISA kit (R&D Systems) according to manufacturer's instructions. EPO values represent the mean±SEM (n=3).

[6] = test system: Nrf2; test: Nrf2 activation/inhibition in HaCaT-ARE-Luc cells; type: cell-based; details: 6 h
Method: as §1

[7] = test system: Nrf2; test: Nrf2 activation/inhibition in HaCaT-ARE-Luc cells; type: cell-based

How did the “glucose tolerance (GTT)” value ([1]; 3 weeks) turn out when `C=C(C)[C@@H]1CC[C@]2(C(=O)NO)CC[C@]3(C)[C@H](CC[C@@H]4[C@@]5(C)CC[C@H](O)C(C)(C)[C@@H]5CC[C@]43C)[C@@H]12` [Compound VII, (3β) 3-Hydroxy-N-hydroxy-lup-20(29)-en-28-amide] was run?
The value was “improved glucose tolerance”.

What about the “plasma levels of triglycerides” value ([1]; 3 weeks) of the same molecule?
Its value is “normalize the plasma levels of triglycerides”.

What about the adiposity ([1]; 12th to 15th week) of the same molecule?
Its adiposity is “alleviated”.

And the “increase in Fat Mass” value ([1]; 12th to 15th week)?
Its value is “alleviated”.

What about the weight gain ([1]; 12th to 15th week) of the same molecule?
Its weight gain is “alleviated weight gain”.

And the pIC50 [2]?
The pIC50 was under 4.30.

What about the HIF-1α expression [3] of the same molecule?
Its HIF-1α expression is “stabilized HIF-1α expression”.

And the “expression of PHD1 and PHD2” value [3]?
The value was “without affecting the expression of PDH1 and PDH2”.

And the pEC50 [4]?
Its pEC50 is under 4.30.

And the “circulating EPO plasma levels” value [5]?
Its value is “strongly increased”.

What about the pEC50 [6] of the same molecule?
The pEC50 was under 4.30.

What about the pIC50 [7] of the same molecule?
The pIC50 was under 4.30.
